Data taken from BindingDB's records for patent US12415785 (Ctxt, 2025).

Biological target: T1, Stimulator of interferon genes protein [1-379,R71H,G230A,H232R,R293Q] (Homo sapiens, UniProt Q86WV6, G230A/H232R/R293Q/R71H)
T1 construct: 1-379
Experiment: Surface Plasmon Resonance (SPR)
Experimental: Briefly, approximately 20 nmol of recombinant STING protein in 1×TBS buffer (25 mM Tris-HCl, pH 7.5, 150 mM NaCl, 5 mM DTT) was mixed with of EZ-Link™ Sulfo-NHS-LC-LC-Biotin (Thermofisher Scientific, cat #21338) at a molar ratio of 1 to 0.6 and incubated on ice for 2 hours. To remove any unreacted biotin reagent, protein/biotin mixture was passed through a Superdex 75 (10/300 GL) column equilibrated with 10 mM HEPES, pH7.4, 150 mM NaCl, 5 mM DTT, 5%[v/v] glycerol. A protein peak containing biotinylated huSTING protein was collected and stored in aliquots at −80° C.Streptavidin was simultaneously immobilized in all four channels of a CM5 sensor chip docked in a Biacore instrument (either Biacore S200 or Biacore T200, GE Healthcare) as described previously (Zender 2013). Minimally biotinylated STING protein was captured onto a streptavidin coated chip surface at 8° C. in SPR binding buffer (50 mM HEPES, pH 7.4, 150 mM NaCl, 2%[v/v] DMSO) by gradually injecting in a single channel at a constant flow-rate of 2 μL/min until desired capture level was achieved, typically 3000 to 7000 RU (1 RU=1 pg/mm2).All binding experiments were performed at 8° C. in SPR binding buffer. To determine binding affinity, compound interaction with immobilized STING protein was analysed using dose-response experiments. Fresh 10 mM DMSO solutions of compound were diluted directly into SPR binding buffer typically to a concentration of 50 μM and then further diluted 2-fold or 3-fold aiming for either a 5- or 7-point concentration series range. Each ligand concentration series was injected at a constant flow rate of 60 μL/min with a 90 second association and a 180 second dissociation time.

T1 sequence (Q86WV6 whole entry R71H/G230A/H232R/R293Q, looked up): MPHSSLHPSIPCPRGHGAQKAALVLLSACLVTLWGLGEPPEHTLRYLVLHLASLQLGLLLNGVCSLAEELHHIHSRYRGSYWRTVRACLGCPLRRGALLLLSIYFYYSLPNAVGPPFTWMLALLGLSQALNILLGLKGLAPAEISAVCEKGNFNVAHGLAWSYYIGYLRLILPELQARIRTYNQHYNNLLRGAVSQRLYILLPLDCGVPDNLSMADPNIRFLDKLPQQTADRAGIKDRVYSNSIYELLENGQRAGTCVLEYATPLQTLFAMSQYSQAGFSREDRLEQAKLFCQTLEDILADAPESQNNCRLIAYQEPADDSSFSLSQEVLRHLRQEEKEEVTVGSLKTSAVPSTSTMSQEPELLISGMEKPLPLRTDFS

SMILES | Kd [µM]
COc1c(C(N)=O)ccc2c1nc(-c1cccc(Cl)c1-c1nn[nH]n1)n2CCn1c(-c2cccc(Cl)c2-c2nn[nH]n2)nc2c(OC)c(C(N)=O)ccc21 [US12415785, Example 40] | 64
NC(=O)c1ccc2c(c1)nc(-c1ccccc1-c1nn[nH]n1)n2CCn1c(-c2ccccc2-c2nnn[nH]2)nc2cc(C(N)=O)ccc21 [US12415785, Example 5] | 19.3
COc1c(C(N)=O)ccc2c1nc(-c1c(Cl)cccc1C(=O)O)n2CCn1c(-c2c(Cl)cccc2C(=O)O)nc2c(OC)c(C(N)=O)ccc21 [US12415785, Example 22] | 0.002
COc1c(C(N)=O)ccc2c1nc(-c1ncc(Cl)cc1C(=O)O)n2CCn1c(-c2ncc(Cl)cc2C(=O)O)nc2c(OC)c(C(N)=O)ccc21 [US12415785, Example 31] | 55
COc1c(C(N)=O)ccc2c1nc(-c1ccc(Cl)cc1-c1cn[nH]n1)n2CCn1c(-c2ccc(Cl)cc2-c2cn[nH]n2)nc2c(OC)c(C(N)=O)ccc21 [US12415785, Example 24] | 22
COc1c(C(N)=O)ccc2c1nc(-c1cc(Cl)ccc1-c1nn[nH]n1)n2CCn1c(-c2cc(Cl)ccc2-c2nn[nH]n2)nc2c(OC)c(C(N)=O)ccc21 [US12415785, Example 42] | 14.8
COc1c(C(N)=O)cc(F)c2c1nc(-c1c(F)cc(F)cc1C(=O)O)n2CCn1c(-c2c(F)cc(F)cc2C(=O)O)nc2c(OC)c(C(N)=O)cc(F)c21 [US12415785, Example 18] | 0.144
COc1c(C(N)=O)ccc2c1nc(-c1ccccc1-c1nn[nH]n1)n2CCn1c(-c2ccccc2-c2nn[nH]n2)nc2c(OC)c(C(N)=O)ccc21 [US12415785, Example 6] | 11.9
COc1c(C(N)=O)ccc2c1nc(-c1c(F)cccc1-c1n[nH]c(=O)o1)n2CCn1c(-c2c(F)cccc2-c2n[nH]c(=O)o2)nc2c(OC)c(C(N)=O)ccc21 [US12415785, Example 49] | 0.031
COc1c(C(N)=O)ccc2c1nc(-c1cnccc1C(=O)O)n2CCn1c(-c2cnccc2C(=O)O)nc2c(OC)c(C(N)=O)ccc21 [US12415785, Example 30] | 90
COc1c(C(N)=O)ccc2c1nc(-c1c(F)cccc1-c1nn[nH]n1)n2CCn1c(-c2c(F)cccc2-c2nn[nH]n2)nc2c(OC)c(C(N)=O)ccc21 [US12415785, Example 48] | 0.03
COc1c(C(N)=O)ccc2c1nc(-c1c(F)cc(F)cc1-c1nn[nH]n1)n2CCn1c(-c2c(F)cc(F)cc2-c2nn[nH]n2)nc2c(OC)c(C(N)=O)ccc21 [US12415785, Example 43] | 0.096
COc1c(C(N)=O)ccc2c1nc(-c1c(F)cc(Cl)cc1-c1n[nH]c(=O)o1)n2CCn1c(-c2c(F)cc(Cl)cc2-c2n[nH]c(=O)o2)nc2c(OC)c(C(N)=O)ccc21 [US12415785, Example 50] | 0.014
COc1c(C(N)=O)ccc2c1nc(-c1ccc(Cl)cc1-c1n[nH]c(=O)o1)n2CCn1c(-c2ccc(Cl)cc2-c2n[nH]c(=O)o2)nc2c(OC)c(C(N)=O)ccc21 [US12415785, Example 17] | 0.416
COc1c(C(N)=O)ccc2c1nc(-c1c(I)cccc1C(=O)O)n2CCn1c(-c2c(I)cccc2C(=O)O)nc2c(OC)c(C(N)=O)ccc21 [US12415785, Example 19.1] | 0.002
COc1c(C(N)=O)ccc2c1nc(-c1ccc(Cl)cc1C(=O)O)n2CCCn1c(-c2ccc(Cl)cc2C(=O)O)nc2c(OC)c(C(N)=O)ccc21 [US12415785, Example 35] | 35
COc1c(C(N)=O)cc(F)c2c1nc(-c1ccc(Cl)cc1C(=O)O)n2CCn1c(-c2ccc(Cl)cc2C(=O)O)nc2c(OC)c(C(N)=O)cc(F)c21 [US12415785, Example 20] | 12.8
COc1c(C(N)=O)ccc2c1nc(-c1c(F)cc(Cl)cc1C(=O)O)n2CCn1c(-c2c(F)cc(Cl)cc2C(=O)O)nc2c(OC)c(C(N)=O)ccc21 [US12415785, Example 11] | 0.078

SMILES | Kd [µM]
COc1c(C(N)=O)ccc2c1nc(-c1c(F)cc(F)cc1-c1n[nH]c(=O)o1)n2CCn1c(-c2c(F)cc(F)cc2-c2n[nH]c(=O)o2)nc2c(OC)c(C(N)=O)ccc21 [US12415785, Example 44] | 0.423
COc1ccc(-c2nc3c(OC)c(C(N)=O)ccc3n2CCn2c(-c3ccc(OC)cc3C(=O)O)nc3c(OC)c(C(N)=O)ccc32)c(C(=O)O)c1 [US12415785, Example 41] | 83
CCc1ccc(-c2nc3c(OC)c(C(N)=O)ccc3n2CCn2c(-c3ccc(CC)cc3C(=O)O)nc3c(OC)c(C(N)=O)ccc32)c(C(=O)O)c1 [US12415785, Example 33] | 78
COc1c(C(N)=O)ccc2c1nc(-c1c(F)cccc1C(=O)O)n2CCn1c(-c2c(F)cccc2C(=O)O)nc2c(OC)c(C(N)=O)ccc21 [US12415785, Example 10] | 0.183
COc1c(C(N)=O)ccc2c1nc(-c1ccc(Cl)cc1C(=O)O)n2CCn1c(-c2ccc(Cl)cc2C(=O)O)nc2c(OC)c(C(N)=O)ccc21 [US12415785, Example 1] | 16.6
COC(=O)c1c(Br)cccc1-c1nc2c(OC)c(C(N)=O)ccc2n1CCn1c(-c2cccc(Br)c2C(=O)OC)nc2c(OC)c(C(N)=O)ccc21 [US12415785, Example 21] | 1.09
NC(=O)c1ccc2c(c1)nc(-c1ccccc1C(=O)O)n2CCn1c(-c2ccccc2C(=O)O)nc2cc(C(N)=O)ccc21 [US12415785, Example 2] | 67
COc1c(C(N)=O)ccc2c1nc(-c1ccc(Cl)cc1C(=O)O)n2C/C=C/Cn1c(-c2ccc(Cl)cc2C(=O)O)nc2c(OC)c(C(N)=O)ccc21 [US12415785, Example 34] | 26
NC(=O)c1ccc2c(c1)nc(-c1ccc(Cl)cc1C(=O)O)n2CCn1c(-c2ccc(Cl)cc2C(=O)O)nc2cc(C(N)=O)ccc21 [US12415785, Example 39] | 300
COc1c(C(N)=O)ccc2c1nc(-c1c(F)cc(Cl)cc1-c1nn[nH]n1)n2CCn1c(-c2c(F)cc(Cl)cc2-c2nn[nH]n2)nc2c(OC)c(C(N)=O)ccc21 [US12415785, Example 46] | 0.025
COc1c(C(N)=O)ccc2c1nc(-c1cc(C)ccc1C(=O)O)n2CCn1c(-c2cc(C)ccc2C(=O)O)nc2c(OC)c(C(N)=O)ccc21 [US12415785, Example 26] | 32.5
COc1c(C(N)=O)ccc2c1nc(-c1ccc(Cl)cc1-c1nn[nH]n1)n2CCn1c(-c2ccc(Cl)cc2-c2nn[nH]n2)nc2c(OC)c(C(N)=O)ccc21 [US12415785, Example 9] | 2.66
COc1c(C(N)=O)ccc2c1nc(-c1ccc(C)cc1C(=O)O)n2CCn1c(-c2ccc(C)cc2C(=O)O)nc2c(OC)c(C(N)=O)ccc21 [US12415785, Example 25] | 19.3
NC(=O)c1ccc2c(c1)nc(-c1c(Br)cccc1C(=O)O)n2CCn1c(-c2c(Br)cccc2C(=O)O)nc2cc(C(N)=O)ccc21 [US12415785, Example 29.1] | 0.936
COc1c(C(N)=O)ccc2c1nc(-c1c(F)cc(F)cc1C(=O)O)n2CCn1c(-c2c(F)cc(F)cc2C(=O)O)nc2c(OC)c(C(N)=O)ccc21 [US12415785, Example 16] | 0.166
COc1c(C(N)=O)ccc2c1nc(-c1cc(F)c(F)cc1C(=O)O)n2CCn1c(-c2cc(F)c(F)cc2C(=O)O)nc2c(OC)c(C(N)=O)ccc21 [US12415785, Example 15] | 6.34
COc1c(C(N)=O)ccc2c1nc(-c1c(Cl)cccc1-c1nn[nH]n1)n2CCn1c(-c2c(Cl)cccc2-c2nn[nH]n2)nc2c(OC)c(C(N)=O)ccc21 [US12415785, Example 23] | 0.002
